Consider three compounds from patent publication US10815235B2, “Polycyclic compounds and uses thereof” (priority 2017, dated 2020).

Like-named read-outs stand apart in the source and are kept apart here. Bounds are passed on as bounds.

The target in test [1] is T1, Serotonin 5-HT1A receptor (Homo sapiens, UniProt P08908).
T1 sequence (P08908 1-422): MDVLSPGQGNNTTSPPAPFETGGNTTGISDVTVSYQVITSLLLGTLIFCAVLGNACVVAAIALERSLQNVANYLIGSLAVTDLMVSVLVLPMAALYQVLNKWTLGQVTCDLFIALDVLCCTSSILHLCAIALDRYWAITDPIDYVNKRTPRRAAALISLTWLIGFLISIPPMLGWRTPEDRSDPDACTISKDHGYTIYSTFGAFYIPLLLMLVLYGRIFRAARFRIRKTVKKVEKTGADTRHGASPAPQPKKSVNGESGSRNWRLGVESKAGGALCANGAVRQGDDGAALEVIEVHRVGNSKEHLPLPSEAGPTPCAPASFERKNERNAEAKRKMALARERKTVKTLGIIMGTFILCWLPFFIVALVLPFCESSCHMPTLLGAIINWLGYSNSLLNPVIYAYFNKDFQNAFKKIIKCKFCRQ
The test is described as follows: GTPγS Scintillation Proximity Assay, agonist and antagonist mode. It counts as biochemical. The procedure: (§1) Antagonist and agonist activities were determined using a GTPγS Scintillation Proximity Assay. The assay was prepared as follows: Membrane extracts were prepared from recombinant human Dopamine D2L, D3; Serotonin 5-HT1A, 5-HT1B, 5-HT1D and 5-HT1F receptors.
(§2) Samples were tested by proprietary biological assays by Ogeda S. A., Euroscreen FAST Business Unit, Rue Adrienne Bolland, 47 B-6041 Gosselies, Belgium. Each protein assay was prepared using the following conditions.
5-HT1A • Assay buffer: 20 mM HEPES pH 7.4; 100 mM NaCl, 10 μg/ml saponin, 3 mM MgCl2, 0.1% protease-free BSA; • Membranes: recombinant 5-HT1A membrane extracts thawed on ice and diluted in assay buffer to give 1 mg/ml (10 μg/well) and kept on ice; • GDP: diluted in assay buffer to give a 3 μM final assay concentration; • Beads: PVT-WGA (Perkin Elmer, RPNQ001), diluted in assay buffer at 50 mg/ml (0.5 mg/well); and • GTPγ^35S: (PerkinElmer NEG030X), diluted in assay buffer to give 0.1 nM;
Membranes were mixed with GDP (volume:volume 1:1) and incubated for at least 15 min on ice. In parallel, GTPγ[^35S] is mixed with the beads (volume:volume 1:1) just before starting the reaction.
To determine agonist activity, the following reagents were added in the wells of an Optiplate (Perkin Elmer): 50 μL of test or reference ligand, 10 μL of assay buffer, 20 μl of the membranes:GDP mix, and 20 μL of the GTPγ[^35S]:beads mix. EC50 values were used to determine whether a compound acted as an agonist.
To determine antagonist activity, the following reagents were added in the wells of an Optiplate (Perkin Elmer): 50 μL of test or reference ligand, 20 μL of the membranes:GDP mix, then the plate is incubated 15 minutes at room temperature. After incubation, 10 μL of reference agonist at historical EC80 (final concentration) was added, followed by 20 μL of the GTPγ[^35S]:beads mix.
The plates were covered with a top seal, mixed on an orbital shaker for 2 min, and then incubated for 1 hour at room temperature. Then the plates were centrifuged for 10 min at 2000 rpm, incubated at room temperature 1 hour and counted for 1 min/well with a PerkinElmer TopCount reader. IC50 values were used to determine whether a compound acted as an antagonist.
(In a scintillation proximity assay essentially only radioactivity close to the scintillant gives light.)

In test [2] the target is T2, Serotonin 5-HT1F receptor (Homo sapiens, UniProt P30939).
T2 sequence (P30939 1-366): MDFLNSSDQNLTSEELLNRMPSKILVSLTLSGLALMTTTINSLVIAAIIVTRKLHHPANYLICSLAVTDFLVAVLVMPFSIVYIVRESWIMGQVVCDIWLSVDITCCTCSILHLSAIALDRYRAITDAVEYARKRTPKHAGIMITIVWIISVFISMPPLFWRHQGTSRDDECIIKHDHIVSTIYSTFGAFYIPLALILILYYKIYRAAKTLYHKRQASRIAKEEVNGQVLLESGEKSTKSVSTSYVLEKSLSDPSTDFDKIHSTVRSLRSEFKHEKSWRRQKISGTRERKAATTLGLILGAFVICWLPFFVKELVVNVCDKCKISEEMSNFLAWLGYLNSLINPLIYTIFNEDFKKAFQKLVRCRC
The description is as above. The class given is biochemical. The procedure: as §1, §2
5-HT1F • Assay buffer: 20 mM HEPES pH 7.4; 100 mM NaCl, 10 μg/ml saponin, 1 mM MgCl2; • Membranes: recombinant 5-HT1F membrane extracts thawed on ice and diluted in assay buffer to give 0.5 mg/ml (5 μg/well) and kept on ice; • GDP: diluted in assay buffer to give a 3 μM final assay concentration; • Beads: PVT-WGA (Perkin Elmer, RPNQ001), diluted in assay buffer at 50 mg/ml (0.5 mg/well); and • GTPγ^35S: (PerkinElmer NEG030X), diluted in assay buffer to give 0.1 nM.
Membranes were mixed with GDP (volume:volume 1:1) and incubated for at least 15 min on ice. […]
The plates were covered with a top seal, mixed on an orbital shaker for 2 min, and then incubated for 1 hour at room temperature. Then the plates were centrifuged for 10 min at 2000 rpm, incubated at room temperature 1 hour and counted for 1 min/well with a PerkinElmer TopCount reader. […]

Setting [3] is: antagonist mode, bound stated, read-out: IC50 value for the Serotonin 5-HT1A receptor.
The mark [4] stands for this setting: membrane extracts, vs reference agonist at EC80, read-out: Antagonist Activity (IC50), 5-HT1A.

As for `CCN(CC)C(=O)N[C@H]1C[C@@H]2c3cccc4[nH]c(Br)c(c34)C[C@H]2N(C)C1` [Compound A8H, 3-((6aR,9S, 10aR)-5-bromo-7-methyl-4,6,6a,7,8,9,10,10a-octahydroindolo[4,3-fg]quinolin-9-yl)-1,1-diethylurea], the 50% effective concentration (EC50) (as a rule, the midpoint of the concentration-response curve) in test [1] (agonist mode, bound stated, read-out: EC50 value for the Serotonin 5-HT1A receptor) is less than 1000 nM; in test [1] (membrane extracts, read-out: Agonist Activity (EC50), 5-HT1A) it was 31 nM. The IC50 (commonly the midpoint of a concentration-inhibition curve) is less than 1000 nM in test [1] (setting [3]) and 160 nM in test [1] (setting [4]).
On to `CCN(CC(F)(F)F)C(=O)N[C@H]1C[C@@H]2c3cccc4[nH]c(C5CC5)c(c34)C[C@H]2N(C)C1` [Compound A17H, 3-((6aR,9S,10aR)-5-cyclopropyl-7-methyl-4,6,6a,7,8,9,10,10a-octahydroindolo[4,3-fg]quinolin-9-yl)-1-ethyl-1-(2,2,2-trifluoroethyl)urea], for which the IC50 is less than 1000 nM in test [1] (setting [3]) and 590 nM in test [1] (setting [4]).
For `CC[C@@H](CO)NC(=O)[C@@H]1C[C@@H]2c3cccc4c3c(c(C3CC3)n4C)C[C@H]2N(C)C1` [Compound D13H, (6aR,9R,10aR)-5-cyclopropyl-N—((S)-1-hydroxybutan-2-yl)-4,7-dimethyl-4,6,6a,7,8,9,10,10a-octahydroindolo[4,3-fg]quinoline-9-carboxamide], the half-maximal effective concentration (EC50) in test [2] (agonist mode, bound stated, read-out: EC50 value for the Serotonin 5-HT1F receptor) was less than 1000 nM; in test [2] (membrane extracts, read-out: Agonist Activity (EC50), 5-HT1F), 260 nM.
